Results from US20260132164A1, “PNU ANTHRACYCLINE DERIVATIVES AND METHODS OF USE THEREOF” (Merck Sharp & Dohme LLC, priority 2022, published 2026).

Test system: BxPC3
Assay: CellTiter-Glo 2.0 Cytotoxicity Assay
Format: cell-based
Details: compound added day 1, read on day 4 or 5, 3000 cells/well
[1] = Homo sapiens, BXPC-3, CellTiter-Glo 2.0 luminescence

SMILES	EC50 [1]	EC50 (CellTiter-Glo 2.0 luminescence)
COc1cccc2c1C(=O)c1c(O)c3c(c(O)c1C2=O)C[C@@](O)(C(=O)NC[C@H]1CNC(=O)C1)C[C@@H]3O[C@H]1C[C@H]2[C@H](O[C@@H]3[C@@H](OC)OCCN32)[C@H](C)O1 [Compound 85]	0.4 nM	–
COc1cccc2c1C(=O)c1c(O)c3c(c(O)c1C2=O)C[C@@](O)(C(=O)NC[C@@H]1CNC(=O)C1)C[C@@H]3O[C@H]1C[C@H]2[C@H](O[C@@H]3[C@@H](OC)OCCN32)[C@H](C)O1 [Compound 86]	0.39 nM	–
COc1cccc2c1C(=O)c1c(O)c3c(c(O)c1C2=O)C[C@@](O)(C(=O)NCC1CC(=O)NC1=O)C[C@@H]3O[C@H]1C[C@H]2[C@H](O[C@@H]3[C@@H](OC)OCCN32)[C@H](C)O1 (stereo partly drawn) [Compound 87]	–	0.12 nM
COc1cccc2c1C(=O)c1c(O)c3c(c(O)c1C2=O)C[C@@](O)(C(=O)NCC1CC(=O)NC1=O)C[C@@H]3O[C@H]1C[C@H]2[C@H](O[C@@H]3[C@@H](OC)OCCN32)[C@H](C)O1 (stereo partly drawn) [Compound 88]	–	0.27 nM
COc1cccc2c1C(=O)c1c(O)c3c(c(O)c1C2=O)C[C@@](O)(C(=O)NCCO)C[C@@H]3O[C@H]1C[C@H]2[C@H](O[C@@H]3[C@@H](OC)OCCN32)[C@H](C)O1 [Compound 89]	0.37 nM	–
COc1cccc2c1C(=O)c1c(O)c3c(c(O)c1C2=O)C[C@@](O)(C(=O)NC12CC(O)(C1)C2)C[C@@H]3O[C@H]1C[C@H]2[C@H](O[C@@H]3[C@@H](OC)OCCN32)[C@H](C)O1 [Compound 90]	0.23 nM	–
